According to BindingDB's records for PubMed 11504829 (University of Melbourne, 2001):

Key:
[1] = biological target: Muscarinic acetylcholine receptor M3 (Homo sapiens, UniProt P20309)
[2] = biological target: T1, Muscarinic acetylcholine receptor M2 (Homo sapiens, UniProt P08172)
T1 sequence (P08172 whole entry): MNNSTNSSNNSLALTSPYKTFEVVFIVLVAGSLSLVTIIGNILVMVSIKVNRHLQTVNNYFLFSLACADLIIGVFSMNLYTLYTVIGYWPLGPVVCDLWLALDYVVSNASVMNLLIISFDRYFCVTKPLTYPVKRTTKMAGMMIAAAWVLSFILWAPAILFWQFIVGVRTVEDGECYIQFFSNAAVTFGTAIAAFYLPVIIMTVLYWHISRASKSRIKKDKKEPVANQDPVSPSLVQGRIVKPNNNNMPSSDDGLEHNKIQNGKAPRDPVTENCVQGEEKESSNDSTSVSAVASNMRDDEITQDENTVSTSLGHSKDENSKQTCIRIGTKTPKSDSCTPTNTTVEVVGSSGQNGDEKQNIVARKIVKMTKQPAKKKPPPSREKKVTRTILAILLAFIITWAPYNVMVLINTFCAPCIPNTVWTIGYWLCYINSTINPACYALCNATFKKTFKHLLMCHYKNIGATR

[3] = biological target: T2, Muscarinic acetylcholine receptor M1 (Homo sapiens, UniProt P11229)
T2 sequence (P11229 whole entry): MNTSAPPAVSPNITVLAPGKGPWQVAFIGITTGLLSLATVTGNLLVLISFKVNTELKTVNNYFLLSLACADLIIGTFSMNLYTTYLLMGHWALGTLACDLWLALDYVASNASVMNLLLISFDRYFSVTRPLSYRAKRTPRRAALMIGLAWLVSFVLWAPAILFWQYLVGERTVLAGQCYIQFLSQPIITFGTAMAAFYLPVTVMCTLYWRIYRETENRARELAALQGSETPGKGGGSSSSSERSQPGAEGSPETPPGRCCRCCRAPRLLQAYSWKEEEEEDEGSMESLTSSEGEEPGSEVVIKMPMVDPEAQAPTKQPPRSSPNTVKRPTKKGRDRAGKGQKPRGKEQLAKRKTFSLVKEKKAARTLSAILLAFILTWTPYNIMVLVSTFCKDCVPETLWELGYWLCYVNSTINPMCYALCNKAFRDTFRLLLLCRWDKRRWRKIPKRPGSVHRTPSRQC

[4] = biological target: T3, Muscarinic acetylcholine receptor M2 (Rattus norvegicus, UniProt P10980)
T3 sequence (P10980 whole entry): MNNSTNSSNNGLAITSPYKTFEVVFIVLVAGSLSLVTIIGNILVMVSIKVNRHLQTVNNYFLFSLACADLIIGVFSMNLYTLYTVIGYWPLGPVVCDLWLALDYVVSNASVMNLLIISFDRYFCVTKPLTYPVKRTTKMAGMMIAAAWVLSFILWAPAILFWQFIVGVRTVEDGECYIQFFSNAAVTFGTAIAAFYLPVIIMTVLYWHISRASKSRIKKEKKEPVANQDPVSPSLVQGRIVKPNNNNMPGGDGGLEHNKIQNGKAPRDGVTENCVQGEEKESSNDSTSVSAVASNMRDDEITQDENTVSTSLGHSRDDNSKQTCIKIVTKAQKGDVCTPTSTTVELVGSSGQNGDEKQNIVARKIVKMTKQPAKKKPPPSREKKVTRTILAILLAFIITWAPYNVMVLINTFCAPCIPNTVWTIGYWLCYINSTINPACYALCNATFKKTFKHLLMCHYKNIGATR

[5] = biological target: T4, Muscarinic acetylcholine receptor M4 (Homo sapiens, UniProt P08173)
T4 sequence (P08173 whole entry): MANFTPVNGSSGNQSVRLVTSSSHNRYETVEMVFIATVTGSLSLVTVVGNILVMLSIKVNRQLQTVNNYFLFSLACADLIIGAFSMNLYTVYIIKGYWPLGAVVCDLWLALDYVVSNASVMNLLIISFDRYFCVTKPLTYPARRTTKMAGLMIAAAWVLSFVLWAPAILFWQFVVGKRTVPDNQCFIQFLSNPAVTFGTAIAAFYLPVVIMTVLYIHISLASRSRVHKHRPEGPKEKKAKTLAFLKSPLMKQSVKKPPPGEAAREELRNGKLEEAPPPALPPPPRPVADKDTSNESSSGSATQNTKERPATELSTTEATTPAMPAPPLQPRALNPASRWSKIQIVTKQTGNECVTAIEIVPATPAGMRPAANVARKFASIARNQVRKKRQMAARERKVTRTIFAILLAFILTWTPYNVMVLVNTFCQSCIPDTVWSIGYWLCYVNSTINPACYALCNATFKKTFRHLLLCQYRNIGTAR

[6] = biological target: T5, Muscarinic acetylcholine receptor M5 (Homo sapiens, UniProt P08912)
T5 sequence (P08912 whole entry): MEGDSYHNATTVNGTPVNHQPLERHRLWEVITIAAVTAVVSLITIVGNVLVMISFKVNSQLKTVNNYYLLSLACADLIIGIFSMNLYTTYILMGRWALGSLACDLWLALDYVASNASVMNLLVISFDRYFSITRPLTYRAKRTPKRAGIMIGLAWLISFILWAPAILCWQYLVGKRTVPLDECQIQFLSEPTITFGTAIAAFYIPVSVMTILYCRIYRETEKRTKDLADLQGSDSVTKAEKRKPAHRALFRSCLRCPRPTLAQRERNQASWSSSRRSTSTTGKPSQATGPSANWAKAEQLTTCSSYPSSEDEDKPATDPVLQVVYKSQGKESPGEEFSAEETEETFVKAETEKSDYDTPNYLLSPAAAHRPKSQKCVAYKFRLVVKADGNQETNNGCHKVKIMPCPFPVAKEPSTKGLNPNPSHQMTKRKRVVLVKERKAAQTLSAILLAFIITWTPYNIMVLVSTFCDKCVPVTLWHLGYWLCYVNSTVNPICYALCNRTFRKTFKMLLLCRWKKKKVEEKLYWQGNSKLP

Chain of Muscarinic acetylcholine receptor M3 (P20309 whole entry): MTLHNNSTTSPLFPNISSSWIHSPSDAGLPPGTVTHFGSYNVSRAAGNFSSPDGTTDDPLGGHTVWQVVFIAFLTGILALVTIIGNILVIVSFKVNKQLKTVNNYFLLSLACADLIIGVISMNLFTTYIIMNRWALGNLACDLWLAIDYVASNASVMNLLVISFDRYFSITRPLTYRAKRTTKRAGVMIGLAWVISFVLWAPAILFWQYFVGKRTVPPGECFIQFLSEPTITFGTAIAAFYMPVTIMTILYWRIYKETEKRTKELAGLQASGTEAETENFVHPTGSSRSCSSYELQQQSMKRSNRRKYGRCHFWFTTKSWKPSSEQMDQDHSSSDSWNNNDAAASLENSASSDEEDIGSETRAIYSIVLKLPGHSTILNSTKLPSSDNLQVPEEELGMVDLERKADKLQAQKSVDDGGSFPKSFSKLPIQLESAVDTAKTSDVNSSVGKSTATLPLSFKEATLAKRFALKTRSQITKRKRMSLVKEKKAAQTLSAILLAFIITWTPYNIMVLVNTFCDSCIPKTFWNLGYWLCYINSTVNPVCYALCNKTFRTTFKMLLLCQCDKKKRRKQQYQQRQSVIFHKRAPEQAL

Structure (SMILES) | Ki [1] | Ki [2] | Ki [3] | Ki [4] | Ki [5] | Ki [6]
C(#Cc1cccc(C#CCOc2nsnc2C2CN3CCC2CC3)c1)COc1nsnc1C1CN2CCC1CC2 (stereo unspecified) [NNC 11-1607] | 8.13 nM | 5.75 nM | 2.4 nM | 9.55 nM | 8.13 nM | 6.03 nM
C(#Cc1ccccc1)COc1nsnc1C1CN2CCC1CC2 (stereo unspecified) | 77.6 nM | 58.9 nM | 41.7 nM |  | 49 nM | 14.8 nM
C(#Cc1ccc(C#CCOc2nsnc2C2CN3CCC2CC3)cc1)COc1nsnc1C1CN2CCC1CC2 (stereo unspecified) [NNC 11-1585] | 4.68 nM | 0.079 nM | 0.129 nM |  | 2.57 nM | 5.25 nM
